From patent US4157347A, “N-cyano isothioureas” (Bristol-Myers Company, priority 1978, dated 1979)

What was measured:
[1] = in words; cited from earlier work
[2] = system: gastric secretion; conditions: in words, cited from earlier work
[3] = target: T1, histamine H2-receptors (Cavia porcellus, UniProt P47747); conditions: literature, in words; cited from earlier work
T1 construct: The spontaneously beating right atrium was dissected free from other tissues; from tissue; host or cells: isolated spontaneously beating right atrium of male Hartley guinea pigs

[4] = target: T1, histamine H2-receptors; assay: Histamine H2-receptor antagonism, isolated guinea pig right atria assay; assay type: cell-based; conditions: cumulative histamine 1×10^-7 to 3×10^-5 M
Experimental: Subsequent investigations by Hughes and Coret, Proc. Soc. […] Black et al., Agents and Actions, 3, 133 (1973) and Brimblecombe et al., Fed. […] The present comparative studies were carried out using a modification of the procedure reported by Reinhardt et al., Agents and Actions, 4, 217 (1974).
Male Hartley strain guinea pigs (350-450 gm.) were sacrificed by a blow on the head. The heart was excised and placed in a Petri dish of oxygenated (95% O2, 5% CO2) modified Krebs solution (g./liter: NaCl 6.6, KCl 0.35, MgSO4.7 H2 O 0.295, KH2 PO4 0.162, CaCl2 0.238, NaHCO3 2.1 and dextrose 2.09). The spontaneously beating right atrium was dissected free from other tissues and a silk thread (4-0) attached to each end. The atrium was suspended in a 20 ml. muscle chamber containing oxygenated modified Krebs solution maintained at 32° C. Atrial contractions were recorded isometrically by means of a Grass FT 0.03 force displacement transducer and recordings of contractile force and rate were made with a Beckman RP Dynograph.
A resting tension of 1 g. was applied to the atrium and it was allowed to equilibrate for 1 hour.
Concentration-response curve displacement factors were calculated as follows: [formula] The factor obtained for BL-5641 was then expressed as a ratio of the factor obtained for cimetidine. [formula]

[5] = clinical, in words; cited from earlier work
[6] = system: H2 receptors; conditions: in words; cited from earlier work

T1 sequence (P47747 whole entry): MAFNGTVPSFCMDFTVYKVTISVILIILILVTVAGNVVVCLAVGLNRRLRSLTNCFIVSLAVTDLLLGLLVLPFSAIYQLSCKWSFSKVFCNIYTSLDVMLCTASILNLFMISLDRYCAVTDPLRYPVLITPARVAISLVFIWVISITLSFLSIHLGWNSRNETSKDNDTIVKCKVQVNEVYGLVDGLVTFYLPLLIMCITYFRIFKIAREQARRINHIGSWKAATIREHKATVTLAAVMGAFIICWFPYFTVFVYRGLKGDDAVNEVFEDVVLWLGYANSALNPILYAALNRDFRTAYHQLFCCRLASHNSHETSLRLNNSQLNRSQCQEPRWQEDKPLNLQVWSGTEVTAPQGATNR

| SMILES | oral absorption [1] | inhibition of gastric secretion ([2]; animals and man) | clinical effectiveness as H2 receptor antagonist [2] | effect on histamine H2-receptors / contractile rate of guinea pig right atria [3] | concentration of maximal response (histamine-induced increase in atrial rate) [4] | toxicity (agranulocytosis) [5] | oral activity in man [1] | H2 antagonist potency/effectiveness [6] |
| --- | --- | --- | --- | --- | --- | --- | --- | --- |
| CNC(=S)NCCCCc1cnc[nH]1 [Burimamide] | oral absorption is poor | inhibits gastric secretion in animals and man | first clinically effective H2 receptor antagonist | a competitive antagonist of these receptors | – | – | – | – |
| NCCc1c[nH]cn1 [Histamine] | – | – | – | concentration-related increases in the contractile rate | 30 µM | – | – | – |
| CNC(=S)NCCSCc1[nH]cnc1C [Metiamide] | – | – | – | – | – | toxicity (agranulocytosis) | orally active in man | more potent than burimamide |
